Laboratory results published in US10611740B2, “Aryl dihydro-2H-benzo[b][1,4]oxazine sulfonamide and related compounds for use as agonists of RORγ and the treatment of disease” (Lycera Corporation, priority 2015, dated 2020).

Target: T1, RORγ-LBD (Homo sapiens, UniProt P51449)
T1 construct: made in house; host or cells: SF9 cells (baculovirus)
T1 sequence (P51449 269-508 limits assumed): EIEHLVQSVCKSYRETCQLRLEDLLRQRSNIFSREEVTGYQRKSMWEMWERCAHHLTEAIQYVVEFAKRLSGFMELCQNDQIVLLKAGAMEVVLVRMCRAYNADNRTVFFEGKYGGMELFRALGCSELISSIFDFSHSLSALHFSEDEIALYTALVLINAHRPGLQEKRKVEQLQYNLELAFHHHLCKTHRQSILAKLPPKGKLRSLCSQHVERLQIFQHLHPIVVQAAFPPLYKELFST
Test: RORγ-Ligand Binding Domain (LBD) TR-FRET Assay;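 as to TR-FRET Assay Max Response: 665/615 nm ratio relative to signal without ursolic acid or compound set at 100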
Assay type: biochemical
Experimental: Assay procedures and results are described below.
HIS-tagged RORγ-LBD protein was expressed in SF9 cells using a baculovirus expression system. The lysate was diluted in assay buffer (50 mM Tris pH 7.0, 50 mM KCl, 1 mM EDTA, 0.1 mM DTT, 0.01% BSA) to obtain RORγ-LBD final concentration of ˜3 nM in a 384-well assay plate (need to titrate for each batch of protein).
A stock of biotinylated-LXXLL peptide from coactivator SRC1 (Biotin-[…]) was prepared in assay buffer and added to each well (200 nM final concentration). […] RORγ antagonist ursolic acid was also included at a final concentration of 2 μM. Compounds were diluted in DMSO and further diluted in assay buffer with a final DMSO concentration at 1%.

| EC50 [nM] | Structure (SMILES) | TR-FRET Assay Max Response |
| --- | --- | --- |
| < 500 | O=C(O)[C@H]1C[C@H]([C@H]2CN(S(=O)(=O)c3cccc(C(F)(F)F)c3)c3cc(-c4cc(F)ccc4F)ccc3O2)C1 [Compound 60I, (1S,3r)-3-((S)-6-(2,5-difluoro-phenyl)-4-((3-(trifluoromethyl)-phenyl)sulfonyl)-3,4-dihydro-2H-benzo[b][1,4]oxazin-2-yl)cyclobutane-1-carboxylic acid] | ** (The symbol “**” indicates a value in the range of greater than 90 to 150) |
| < 500 | CC(C)(C[C@H]1CN(S(=O)(=O)c2cccc(C(F)(F)F)c2)c2cc(-c3c(F)cccc3C(F)(F)F)ccc2O1)C(=O)O [Compound 32AY, (S)-3-(6-(2-fluoro-6-(trifluoro-methyl)phenyl)-4-((3-(trifluoro-methyl)phenyl)sulfonyl)-3,4-dihydro-2H-benzo[b][1,4]oxazin-2-yl)-2,2-dimethylpropanoic acid] | ** (The symbol “**” indicates a value in the range of greater than 90 to 150) |
| < 500 | O=C(O)C1(C[C@H]2CN(S(=O)(=O)c3cccc(C(F)(F)F)c3)c3cc(-c4cc(F)ccc4F)ccc3O2)CCOCC1 [Compound 57, (S)-4-((6-(2,5-difluorophenyl)-4-((3-(trifluoromethyl)phenyl)sulfonyl)-3,4-dihydro-2H-benzo[b][1,4]oxazin-2-yl)methyl)tetrahydro-2H-pyran-4-carboxylic acid] | *** (The symbol “***” indicates a value in the range of greater than 150 to 200) |
| < 500 | O=C(NCC[C@H]1CN(S(=O)(=O)c2cccc(C(F)(F)F)c2)c2cc(-c3cc(F)ccc3F)ccc2O1)NC[C@H](O)C(=O)O [Compound 23Z, (S)-3-(3-(2-((S)-6-(2,5-difluorophenyl)-4-((3-(trifluoro-methyl)phenyl)sulfonyl)-3,4-dihydro-2H-benzo[b][1,4]oxazin-2-yl)ethyl)ureido)-2-hydroxypropanoic acid] | **** (The symbol “****” indicates a value greater than 200) |
| < 500 | C[C@H](C[C@H]1CN(S(=O)(=O)c2cccc(C(F)(F)F)c2)c2cc(-c3cc(F)cc(OC(F)F)c3)ccc2O1)C(=O)O [Compound 46O, (R)-3-((S)-6-(3-(difluoro-methoxy)-5-fluorophenyl)-4-((3-(trifluoromethyl)phenyl)sulfonyl)-3,4-dihydro-2H-benzo[b][1,4]-oxazin-2-yl)-2-methylpropanoic acid] | *** (The symbol “***” indicates a value in the range of greater than 150 to 200) |
| < 500 | CC(C)(C[C@@H]1CN(S(=O)(=O)c2cccc(C(F)(F)F)c2)c2cc(-c3cc(F)ccc3F)ccc2O1)NS(C)(=O)=O [Compound 30DF, (R)-N-(1-(6-(2,5-difluoro-phenyl)-4-((3-(trifluoromethyl)-phenyl)sulfonyl)-3,4-dihydro-2H-benzo[b][1,4]oxazin-2-yl)-2-methylpropan-2-yl)methane-sulfonamide] | *** (The symbol “***” indicates a value in the range of greater than 150 to 200) |
| < 500 | CC(=O)NC1(C[C@H]2CN(S(=O)(=O)c3cccc(C(F)(F)F)c3)c3cc(-c4cc(F)ccc4F)ccc3O2)CCOCC1 [Compound 78J, (S)-N-(4-((6-(2,5-difluorophenyl)-4-((3-(trifluoromethyl)phenyl)-sulfonyl)-3,4-dihydro-2H-benzo[b][1,4]oxazin-2-yl)methyl)tetrahydro-2H-pyran-4 yl)acetamide] | *** (The symbol “***” indicates a value in the range of greater than 150 to 200) |
| < 500 | O=C(O)C1(C[C@H]2CN(S(=O)(=O)c3cccc(C(F)(F)F)c3)c3cc(-c4cccc(C(F)(F)F)n4)ccc3O2)COC1 [Compound 51D, (S)-3-((4-((3-(trifluoromethyl)-phenyl)sulfonyl)-6-(6-(trifluoro-methyl)pyridin-2-yl)-3,4-dihydro-2H-benzo[b][1,4]oxazin-2-yl)methyl)oxetane-3-carboxylic acid] | *** (The symbol “***” indicates a value in the range of greater than 150 to 200) |
| < 500 | NS(=O)(=O)CCC(=O)NC[C@H]1CN(S(=O)(=O)c2cccc(C(F)(F)F)c2)c2cc(-c3cccc(F)c3Cl)ccc2O1 [Compound 30BK, (S)-N-((6-(2-chloro-3-fluoro-phenyl)-4-((3-(trifluoromethyl)-phenyl)sulfonyl)-3,4-dihydro-2H-benzo[b][1,4]oxazin-2-yl)methyl)-3-sulfamoylpropanamide] | *** (The symbol “***” indicates a value in the range of greater than 150 to 200) |
| < 500 | O=C(NC[C@H]1CN(S(=O)(=O)c2cccc(C(F)(F)F)c2)c2cc(-c3cc(F)cc(OC(F)F)c3)ccc2O1)c1ccn[nH]1 [Compound 30DB, (S)-N-((6-(3-(difluoromethoxy)-5-fluorophenyl)-4-((3-(trifluoromethyl)phenyl)sulfonyl)-3,4-dihydro-2H-benzo[b][1,4]oxazin-2-yl)methyl)-1H-pyrazole-5-carboxamide] | *** (The symbol “***” indicates a value in the range of greater than 150 to 200) |
| < 500 | O=C(O)CC[C@H]1CN(S(=O)(=O)c2cccc(C(F)(F)F)c2)c2cc(-c3cc(F)cc(OC(F)F)c3)c(Cl)cc2O1 [Compound 22N, (S)-3-(7-chloro-6-(3-(difluoro-methoxy)-5-fluorophenyl)-4-((3-(trifluoromethyl)phenyl)sulfonyl)-3,4-dihydro-2H-benzo[b][1,4]-oxazin-2-yl)propanoic acid] |  |
| 500 to 5000 | O=C(O)C1(C[C@@H]2CN(S(=O)(=O)c3cccc(C(F)(F)F)c3)c3cc(-c4cc(F)ccc4F)ccc3O2)CCC1 [Compound 32AQ, (R)-1-((6-(2,5-difluorophenyl)-4-((3-(trifluoromethyl)phenyl)-sulfonyl)-3,4-dihydro-2H-benzo[b][1,4]oxazin-2-yl)methyl)cyclobutane-1-carboxylic acid] | ** (The symbol “**” indicates a value in the range of greater than 90 to 150) |
| < 500 | C[C@@H](C[C@H]1CN(S(=O)(=O)c2cccc(C(F)(F)F)c2)c2cc(-c3cccc(C(F)(F)F)c3)ccc2O1)C(=O)O [Compound 46L, (S)-2-methyl-3-((S)-6-(3-(trifluoromethyl)phenyl)-4-((3-(trifluoromethyl)phenyl)sulfonyl)-3,4-dihydro-2H-benzo[b][1,4]-oxazin-2-yl)propanoic acid] |  |
| < 500 | C[C@@H](C[C@H]1CN(S(=O)(=O)c2cccc(C(F)(F)F)c2)c2cc(-c3cc(Cl)cc(OC(F)F)c3)ccc2O1)C(=O)O [Compound 46R, (S)-3-((S)-6-(3-chloro-5-(difluoromethoxy)phenyl)-4-((3-(trifluoromethyl)phenyl)sulfonyl)-3,4-dihydro-2H-benzo[b][1,4]-oxazin-2-yl)-2-methylpropanoic acid] | *** (The symbol “***” indicates a value in the range of greater than 150 to 200) |
| < 500 | N#CC1(C(=O)NC[C@H]2CN(S(=O)(=O)c3cccc(C(F)(F)F)c3)c3cc(-c4cccc(F)c4Cl)ccc3O2)CC1 [Compound 30BL, (S)-N-((6-(2-chloro-3-fluoro-phenyl)-4-((3-(trifluoromethyl)-phenyl)sulfonyl)-3,4-dihydro-2H-benzo[b][1,4]oxazin-2-yl)methyl)-1-cyanocyclo-propane-1-carboxamide] | *** (The symbol “***” indicates a value in the range of greater than 150 to 200) |
